“Also recorded” adds a separate entry of the source.
Assays:
Parkinsonian rats = details: cited from earlier work
apoptosis = details: in vitro and in vivo; blocking classic pathways, induction of survival pathways; cited from earlier work
[1] = test system: neurologic injury after acute ischemic or hemorrhagic stroke; details: cited from earlier work
[2] = test system: Huntington's disease animal models; details: animal models of Huntington's disease; cited from earlier work
[3] = test system: neurosensory retinal degeneration (P23H rat); experiment: Outer nuclear layer (ONL) cell counting / retinal histopathology in homozygous P23H rats given TUDCA subcutaneously; format: in vivo
Source text: We have studied the use of bile acids (tauroursodeoxycholic acid, TUDCA) for inhibition of neurosensory retinal degeneration in an animal model of retinal degeneration (P23H rat).
Animal Studies: The P23H rat model of inherited retinal degeneration is an animal model of a common mutation found in >10% of autosomal dominantly inherited retinitis pigmentosa in humans. This animal model has been studied in the laboratory of Dr. Olsen at the University of Minnesota. The mechanism of retinal degeneration is mediated by apoptosis, but may follow a separate pathway than that of the rds mouse. The P23H rat model represents a protein conformational disorder that leads to retinal degeneration. Other examples of protein conformation disorders include Huntington's and Parkinson's disease.
(§1) Preliminary Study: Homozygous line 1 and line 3 P23H rats (very strong model of rapid retinal degeneration, especially in the homozygous state), were given 100-200 mg/kg/d of TUDCA via subcutaneous injections while control animals will be given placebo vehicle only. Animals were sacrificed at intervals that correspond to the known retinal degenerations. Eyes were enucleated and the neurosensory retina was examined for signs of neuroprotection by counting the cell nuclei in the various retinal layers (FIG. 1; study design). For each animal studied, 14 sections were taken for each eye with 30-50 separate measurements performed and averaged for each section. Counting the average number of outer nuclear layer (ONL) cells was used to determine the level of retinal injury or loss.

[4] = test system: inherited retinal degeneration (rds mouse); details: preliminary work; cited from earlier work
[5] = Animal weight recordings in TUDCA-treated P23H rats; format: in vivo, rat; details: p<0.05, TUDCA 100-200 mg/kg/d subcutaneous, suggests systemic toxicity
Experimental: as §1

C[C@H](CCC(=O)NCCS(=O)(=O)O)[C@H]1CC[C@H]2[C@@H]3[C@@H](O)C[C@@H]4C[C@H](O)CC[C@]4(C)[C@H]3CC[C@]12C [TUDCA, tauroursodeoxycholic acid]
graft survival (Parkinsonian rats): improved graft survival | interruption of apoptosis (apoptosis): will interrupt apoptosis | protection against neurologic injury [1]: protect against neurologic injury | neuroprotection [2]: neuroprotective | thickness of the ONL in histopathologic images, drug treated vs vehicle ([3]; homozygous P23H rat line 1, week 12, TUDCA 100-200 mg/kg/d subcutaneous, FIG. 2): visible difference in the thickness of the drug treated ONL as compared to the vehicle | average number of ONL cells, TUDCA vs vehicle controls ([3]; homozygous P23H rat line 1, weeks 7, 10 and 12, TUDCA 100-200 mg/kg/d subcutaneous, FIG. 3): no statistically significant differences; also recorded: no statistically significant protective effect | rate of retinal degeneration by counting the ONL layer thickness ([3]; homozygous P23H rat line 3, 9 week post-natal time point, p=0.16 (not statistically significant), TUDCA 100-200 mg/kg/d subcutaneous, FIG. 4): trend toward a protective effect | thickness of the ONL in histopathologic images, drug treated vs control ([3]; homozygous P23H rat line 3, TUDCA 100-200 mg/kg/d subcutaneous, FIG. 2): less noticeable difference between the drug treated and the control | electroretinographic response (functional test of vision) [4]: preservation of visual function | protection of the inner nuclear layer of the retina [4]: dramatic protection of the inner nuclear layer of the retina | animal weight, treated vs controls ([5]; P23H rat line 1, by day 37 and beyond): significant weight loss | animal weight, treated vs controls ([5]; P23H rat line 3, by day 37 and beyond): significant weight loss
